Results as given in patent publication US12458647B2, “Macrocyclic derivative and use thereof” (Guangzhou Joyo Pharmatech Co., Ltd., priority 2022, dated 2025).

Legend:
[1] = system: Capan-1 cells; assay: In vitro cell proliferation experiment (5 days), Capan-1; assay type: cell-based; settings: Capan-1, 5 days; read-out: Inhibitory Activity IC50
Method: (§1) RPMI 1640 medium, DMEM, Ham's F12 medium, F12K medium, IMDM and penicillin/streptomycin antibiotics were purchased from Gibco, fetal bovine serum was purchased from Hyclone, Envision multilabel plate reader (PerkinElmer). […]
(§2) The test compound was diluted by 5-fold to 8 concentrations with a pipette, i.e., from 2 mM to 25.6 nM, and replicate wells were set up for the experiment. […] Another cell plate was prepared, and the signal value was read as the maximum value (the maximum value in the following equation) on the day of dosing for data analysis.
(§3) 50 μL of cell viability chemiluminescent detection reagent was added to the cell plate and incubated at room temperature for 30 minutes to stabilize the luminescence signal. A multilabel plate reader was used for reading. […]

[2] = system: human pancreatic cancer PK59 cells; assay: In vivo pharmacodynamic study, PK59 subcutaneous xenograft tumor model in BALB/c nude mice; settings: gavage once daily
Method: To study the in vivo efficacy of a compound of the present disclosure in BALB/c nude mice subcutaneous xenograft tumor model of human pancreatic cancer PK59 cells.
Laboratory animals: Female BALB/c nude mice, 6-8 weeks old, weighing 18-22 g; supplier. Beijing Vital River Laboratory Animal Technology Co., Ltd.
(1) Cell culture. Human pancreatic cancer PK59 cells were cultured in vitro in a monolayer, and the culture conditions were 10% fetal bovine serum added to Gibco RMPI1640 medium, incubated at 37° C. in a 5% CO2 incubator. Routine passage was performed twice a week with trypsin-EDTA for digestion. When the cell saturation was 80%-90% and the required number was reached, the cells were collected, counted, and inoculated.
(2) Tumour cell inoculation and grouping: 0.2 mL (2×10^6) of PK59 cells (Matrigel was added in a volume ratio of 1:1) was subcutaneously inoculated into the right back of each mouse, and dosing was started when the mean tumor volume reached about 104.4 mm^3, with 6 animals in each group.
The vehicle was 5% DMSO/10% solutol/85% water. Control group: The vehicle was administered via gavage once daily at a dose of 10 μL/g; treatment group: After dissolving the test compound in the vehicle, the compound was administered by gavage once daily.
(3) The tumor diameter was measured with a vernier caliper twice weekly, and the tumor volume (V) was calculated. The formula is: V=0.5a×b^2, where a and b are the long and short diameters of the tumor, respectively. The tumor inhibitory efficacy of the test compound was evaluated by the tumor growth inhibition rate (TGI). The calculation formula is: TGI %=[1−(Mean tumor volume at the end of dosing in a treatment group−Mean tumor volume at the start of dosing in this treatment group)/(Mean tumor volume at the end of treatment in the vehicle control group−Mean tumor volume at the start of treatment in the vehicle control group)×100%.

[3] = system: GP2D cell line; assay: In vitro cell proliferation experiment (5 days, 3D CellTiter-Glo), GP2D; assay type: cell-based; settings: read-out: Inhibitory Activity IC50
Method: as §1, §2, §3

[4] = Pharmacokinetics test in mice; assay type: in vivo, male CD-1 (ICR) mice; settings: male CD-1 mice
Method: The pharmacokinetic behavior of the compounds of the present disclosure was evaluated in male CD-1 (ICR) mice.
The compounds to be tested were dissolved in the vehicle (5% DMSO/10% solutol/85% water). Four male CD-1 mice were divided into 2 groups of 2 mice each. Group 1 mice were administered a single intravenous bolus injection of the compound at a dose of 1 mg/kg. Group 2 mice were administered a single dose of the compound by gavage at a dose of 10 mg/kg. Whole blood samples were collected at 0.083 (intravenous bolus group only), 0.25, 0.5, 1, 2, 4, 8 and 24 hours after dosing. The LC-MS/MS method was used to determine the concentration of the test compound in whole blood samples.

[5] = intravenous bolus 1 mg/kg, whole blood

CCn1c(-c2cc(N3CCN(C)CC3)cnc2C(C)OC)c2c3cc(ccc31)-c1csc(n1)CC(NC(=O)C1C(C)C1C)C(=O)N1NC(C(=O)OCC(C)(C)C2)C2CC1C2 (single isomer, unassigned) [Compound 6A]
IC50 [1]: 2.5 nM
Tumour Volume (mm^3) Day 1 ([2]; 0.5 mpk): 103.6 mm^3
Tumour Volume (mm^3) Day 7 ([2]; 0.5 mpk): 111.0 mm^3
Tumour Volume (mm^3) Day 14 ([2]; 0.5 mpk): 112.4 mm^3
TGI (%) Day 22 ([2]; 0.5 mpk): 101%
Tumour Volume (mm^3) Day 22 ([2]; 0.5 mpk): 96.4 mm^3
Tumour Volume (mm^3) Day 1 ([2]; 2 mpk): 103.5 mm^3
Tumour Volume (mm^3) Day 7 ([2]; 2 mpk): 64.3 mm^3
Tumour Volume (mm^3) Day 14 ([2]; 2 mpk): 45.5 mm^3
TGI (%) Day 22 ([2]; 2 mpk): 107%
Tumour Volume (mm^3) Day 22 ([2]; 2 mpk): 43.3 mm^3
Tumour Volume (mm^3) Day 1 ([2]; 5 mpk): 103.8 mm^3
Tumour Volume (mm^3) Day 7 ([2]; 5 mpk): 65.0 mm^3
Tumour Volume (mm^3) Day 14 ([2]; 5 mpk): 35.7 mm^3
TGI (%) Day 22 ([2]; 5 mpk): 108%
Tumour Volume (mm^3) Day 22 ([2]; 5 mpk): 34.3 mm^3
IC50 [3]: 0.9 nM

CCn1c(-c2cc(N3CCN(C)CC3)cnc2C(C)OC)c2c3cc(ccc31)-c1csc(n1)CC(NC(=O)C1CC1C)C(=O)N1NC(C(=O)OCC(C)(C)C2)C2CC1C2 (single isomer, unassigned) [Compound 7A]
bioavailability (F) ([4]; gavage 10 mg/kg vs i.v. 1 mg/kg): 54.3%
AUC0-last ([4]; gavage 10 mg/kg, whole blood): 17,119 h·nmol/mL
time to maximum concentration (τmax) ([4]; gavage 10 mg/kg, whole blood): 3.0 h
apparent volume of distribution at steady state (Vd) [4, 5]: 2.18 L/kg
area under the whole blood concentration-time curve (AUC0-last) [4, 5]: 3.160 µM·h
elimination half-life (T1/2) [4, 5]: 4.29 h
whole blood clearance (C1) [4, 5]: 6.29 mL/min/kg
